21 compounds from patent US20210221785A1, “AMINO-PYRIMIDONYL DERIVATIVES, A PROCESS FOR THEIR PREPARATION AND PHARMACEUTICAL COMPOSITIONS CONTAINING THEM” (LES LABORATOIRES SERVIER, priority 2018, published 2021) can be followed below.

SMILES strings stand for the structures.

Test [1] deals with T1, His-His-USP7 (aa208-560, |C315A|) (Homo sapiens, UniProt Q93009, C315A).
T1 construct: His-His-USP7 (aa208-560, |C315A|); His-His (N)
The experiment in a line: Evaluation of the inhibition of USP7 by the Fluorescence Intensity (FLINT) readings. It is filed as biochemical. The conditions noted are these: 0.25 nM His-His-USP7, compound incubated 60 minutes at 30° C., 500 nM Ubiquitin-Rhodamine-110 substrate; 50% reduction in kinetic rate. An outline of the steps: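 0.25 nM His-His-USP7 (aa208–560, C315A) preincubated 60 min at 30 °C with compound in 100 mM Bicine pH 8.0, 0.01% Triton X-100, 1 mM TCEP, 10% DMSO. Reaction started with 500 nM ubiquitin-rhodamine-110 and fluorescence (Ex485/Em535) read every 3 min for 21 min. IC50 derived from kinetic-rate reduction over an 11-point curve, 4-parameter fit.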

The subject of test [2] is Z138 mantle cell lymphoma tumour cell lines. As to the kind of experiment: In vitro cytotoxicity, MTT assay. The format is cell-based. The conditions noted are these: Z138 cells exposed to the test compounds for 96 hours, cell viability vs DMSO treated cells. As for the experimental part: The cytotoxicity studies were evaluated by MTT [3-(4,5-dimethylthiazol-2-yl)-2,5-diphenyltetrazolium bromide] assay and carried out on Z138 mantle cell lymphoma tumour cell lines. The cells are distributed onto microplates and exposed to the test compounds for 96 hours. MTT is then added for 4 hours and converted by NAD(P)H-dependent cellular oxidoreductase enzymes in formazan, which has a purple color. The viable cell number is proportional to the production of formuan salts and cell viability can be quantified by the absorbance of the solution at 540 nm with a speetrophotometer (Carmichael et al., Cancer Res. 1987, 47, 936-942).
On the technique in general: Formazan colour is commonly taken as a measure of viable cells.

T1 sequence (Q93009 208-560 C315A): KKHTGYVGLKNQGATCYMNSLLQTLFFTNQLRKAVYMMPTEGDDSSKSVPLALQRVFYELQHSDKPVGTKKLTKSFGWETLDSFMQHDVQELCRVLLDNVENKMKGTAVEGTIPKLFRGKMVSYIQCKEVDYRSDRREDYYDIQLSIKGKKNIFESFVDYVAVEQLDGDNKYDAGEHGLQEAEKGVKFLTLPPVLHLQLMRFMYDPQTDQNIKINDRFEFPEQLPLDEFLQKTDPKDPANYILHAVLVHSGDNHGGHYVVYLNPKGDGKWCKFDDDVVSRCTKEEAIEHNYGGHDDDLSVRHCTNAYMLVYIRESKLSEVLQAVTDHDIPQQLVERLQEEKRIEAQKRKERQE

`Nc1c(Oc2ccc(F)cc2)ncn(CC2(O)CCN(C(=O)[C@@H]3CC[C@](O)(Cc4ccccc4)C[C@H]3c3ccccc3)CC2)c1=O` (relative stereo) [Example 94, rel-5-amino-3-({1-[(1R,2R,4R)-4-benzyl-4-hydroxy-2-phenyl-cyclohexanecarbonyl]-4-hydroxypiperidin-4-yl}methyl)-6-(4-fluorophenoxy)-3,4-dihydropyrimidin-4-one]: the IC50 (as a rule, the concentration that gives 50% inhibition) in test [1] was found to be 63.4 nM; in test [2] (Homo sapiens, Z-138, 96 h), 0.0494 µM.

Take `Nc1c(Oc2ccc(F)cc2)ncn(CC2(O)CCN(C(=O)[C@@H]3CC[C@@](O)(Cc4ccccc4)C[C@H]3c3ccccc3)CC2)c1=O` (relative stereo) [Example 95, rel-5-amino-3-({1-[(1R,2R,4S)-4-benzyl-4-hydroxy-2-phenyl-cyclohexanecarbonyl]-4-hydroxypiperidin-4-yl}methyl)-6-(4-fluorophenoxy)-3,4-dihydropyrimidin-4-one]: the IC50 in test [1] turned out to be 172 nM; in test [2] (Homo sapiens, Z-138, 96 h), 0.253 µM.

As for `Nc1c(Oc2ccc(F)cc2)ncn(CC2(O)CCN(C(=O)[C@@H]3CC[C@](O)(Cc4ccccn4)C[C@H]3c3ccccc3)CC2)c1=O` (relative stereo) [Example 96, rel-5-amino-6-(4-fluorophenoxy)-3-({4-hydroxy-1-[(1R,2R,4R)-4-hydroxy-2-phenyl-4-](pyridin-2-yl)methyl]cyclohexanecarbonyl]piperidin-4-yl}methyl)-3,4-dihydropyrimidin-4-one], the IC50 came out at 109 nM in test [1] and 0.116 µM in test [2] (Homo sapiens, Z-138, 96 h).

In the case of `Nc1c(Oc2ccc(F)cc2)ncn(CC2(O)CCN(C(=O)[C@@H]3CC[C@@](O)(Cc4ccccn4)C[C@H]3c3ccccc3)CC2)c1=O` (relative stereo) [Example 97, rel-5-amino-6-(4-fluorophenoxy)-3-[(4-hydroxy-1-{[(1R,2R,4S)-4-hydroxy-2-phenyl-4-(pyridin-2-ylmethyl)cyclohexyl]carbonyl}piperidin-4-yl)methyl]pyrimidin-4-one], the IC50 was 38.2 nM in test [1] and 0.497 µM in test [2] (Homo sapiens, Z-138, 96 h).

Turning to `Nc1c(Oc2ccc(F)cc2)ncn(CC2(O)CCN(C(=O)[C@@H]3CCC(F)(C#CC4CC4)C[C@H]3c3ccccc3)CC2)c1=O` (relative stereo) [Example 124, rel-5-amino-3-[(1 -{[(1R,2 R)-4-(2-cyclopropylethynyl)-4-fluoro-2-phenylcyclohexyl]carbonyl}-4-hydroxypiperidin-4-yl)methyl]-6-(4-fluorophenoxy)pyrimidin-1-one], the IC50 in test [1] was determined as 89.6 nM; in test [2] (Homo sapiens, Z-138, 96 h) it was 0.236 µM.

Turning to `CC#CC1(F)CC[C@@H](C(=O)N2CCC(O)(Cn3cnc(Oc4ccc(F)cc4)c(N)c3=O)CC2)[C@H](c2ccccc2)C1` (relative stereo) [Example 125, rel-5-amino-3-[(1-{[(1R,2R)-4-fluoro-2-phenyl-4-(prop-1-yn-1-yl)cyclohexyl]carbonyl}-4-hydroxypiperidin-4-yl)methyl]-6-(4-fluorophenoxy)pyrimidin-4-one], the IC50 amounted to 89.5 nM in test [1] and 0.0603 µM in test [2] (Homo sapiens, Z-138, 96 h).

`Nc1c(Oc2ccc(F)cc2)ncn(CC2(O)CCN(C(=O)[C@@H]3CC[C@@](F)(Cc4ccccn4)C[C@H]3c3ccccc3)CC2)c1=O` (relative stereo) [Example 126, rel-5-amino-3-[(1-{[(1R,2R,4S)-4-fluoro-2-phenyl-4-(pyridin-2-ylmethyl)cyclohexyl]carbonyl)}-4-hydroxypiperidin-4-yl)methyl]-6-(4-fluorophenoxy)pyrimidin-4-one]: the IC50 is 79.5 nM in test [1] and 0.17 µM in test [2] (Homo sapiens, Z-138, 96 h).

As for `CC(N)c1ccc(Oc2ncn(CC3(O)CCN(C(=O)[C@@H]4CCC(F)(F)C[C@H]4c4ccccc4)CC3)c(=O)c2N)cc1` (single isomer, unassigned; diastereoisomer 1) [Example 54], the IC50 in test [1] was 7.4 nM; in test [2] (Homo sapiens, Z-138, 96 h), 0.273 µM.

With `CC(N)c1ccc(Oc2ncn(CC3(O)CCN(C(=O)[C@@H]4CCC(F)(F)C[C@H]4c4ccccc4)CC3)c(=O)c2N)cc1` (single isomer, unassigned; diastereoisomer 2) [Example 55], the results for the IC50 in test [1] and in test [2] were 8.69 nM and 0.264 µM, respectively.

For the compound `Nc1c(Oc2ccccc2)ncn(CC2(O)CCN(C(=O)[C@@H]3CCC(F)(F)C[C@H]3c3ccccc3)CC2)c1=O` [Example 1, 5-amino-3-({1-[(1R,2R)-4,4-difluoro-2-phenylcyclohexane-1-carbonyl]-4-hydroxypiperidin-4-yl}methyl)-6-phenoxypyrimidin-4(3H)-one], the IC50 in test [1] came out at 43.7 nM; in test [2] (Homo sapiens, Z-138, 96 h) it was 0.0866 µM.

As to `COc1ccc(Oc2ncn(CC3(O)CCN(C(=O)[C@@H]4CCC(F)(F)C[C@H]4c4ccccc4)CC3)c(=O)c2N)cc1` [Example 3, 5-amino-3-({1-[(1R,2R)-4,4-difluoro-2-phenylcyclohexane-1-carbonyl]-4-hydroxypiperidin-4-yl}methyl)-6-(4-methoxyphenoxy)pyrimidin-4(3H)-one], the IC50 in test [1] came out at 80.2 nM; in test [2] (Homo sapiens, Z-138, 96 h) it was 0.0595 µM.

As to `Nc1c(Oc2ccc(F)cc2)ncn(CC2(O)CCN(C(=O)[C@@H]3CCC(F)(F)C[C@H]3c3ccccc3)CC2)c1=O` [Example 5, 5-amino-3-({1-[(1R,2R)-4,4-difluoro-2-phenylcyclohexane-1-carbonyl]-4-hydroxypiperidin-4-yl}methyl)-6-(4-fluorophenoxy)pyrimidin-4(3H)-one], the IC50 was 63.4 nM in test [1] and 0.0435 µM in test [2] (Homo sapiens, Z-138, 96 h).

Take `CNc1c(Oc2ccccc2)ncn(CC2(O)CCN(C(=O)[C@@H]3CCC(F)(F)C[C@H]3c3ccccc3)CC2)c1=O` [Example 9, 3-({1-[(1R4R)-4,4-difluoro-2-phenylcyclohexane-1-carbonyl]-4-hydroxypiperidin-4-yl}methyl)-5-(methylamino)-6-phenoxypyrimidin-4(3H)-one]: the IC50 came out at 85.8 nM in test [1] and 0.287 µM in test [2] (Homo sapiens, Z-138, 96 h).

`Nc1c(Oc2ccc(Cl)cc2)ncn(CC2(O)CCN(C(=O)[C@@H]3CCC(F)(F)C[C@H]3c3ccccc3)CC2)c1=O` [Example 11, 5-amino-6-(4-chlorophenoxy)-3-({1-[(1R,2R)-4,4-difluoro-2-phenylcyclohexane-1-carbonyl]-4-hydroxypiperidin-4-yl}methyl)pyrimidin-4(3H)-one]: the IC50 in test [1] amounted to 58.7 nM; in test [2] (Homo sapiens, Z-138, 96 h), 0.197 µM.

With `COc1cc(Oc2ncn(CC3(O)CCN(C(=O)[C@@H]4CCC(F)(F)C[C@H]4c4ccccc4)CC3)c(=O)c2N)ccc1Cl` [Example 12, 5-amino-6-(4-chloro-3-methoxy-phenoxy)-3-({1-[(1R,2R)-4,4-difluoro-2-phenylcyclohexane-1-carbonyl]-4-hydroxypiperidin-4-yl}methyl)pyrimidin-4(3H)-one], the IC50 in test [1] is 57.1 nM; in test [2] (Homo sapiens, Z-138) it was 0.0909 µM.

For `Nc1c(Oc2ccc3c(c2)OCO3)ncn(CC2(O)CCN(C(=O)[C@@H]3CCC(F)(F)C[C@H]3c3ccccc3)CC2)c1=O` [Example 14], the IC50 in test [1] amounted to 71.8 nM; in test [2] (Homo sapiens, Z-138, 96 h) it was 0.0413 µM.

As to `COc1cc(O)cc(Oc2ncn(CC3(O)CCN(C(=O)[C@@H]4CCC(F)(F)C[C@H]4c4ccccc4)CC3)c(=O)c2N)c1` [Example 15, 5-amino-3-({1-[(1R,2R)-4,4-difluoro-2-phenylcyclohexane-1-carbonyl]-4-hydroxypiperidin-4-yl}methyl)-6-(3-hydroxy-5-methoxyphenoxy)pyrimidin-4(3H)-one], the IC50 was 23.5 nM in test [1] and 0.0195 µM in test [2] (Homo sapiens, Z-138, 96 h).

In the case of `COc1cc(Oc2ncn(CC3(O)CCN(C(=O)[C@@H]4CCC(F)(F)C[C@H]4c4ccccc4)CC3)c(=O)c2N)ccc1F` [Example 16, 5-amino-3-({1-[(1R,2R)-4,4-difluoro-2-phenylcyclohexane-1-carbonyl]-4-hydroxypiperidin-4-yl}methyl)-6-(4-fluoro-3-methoxyphenoxy)pyrimidin-4(3H)-one], the IC50 in test [1] is 51.6 nM; in test [2] (Homo sapiens, Z-138, 96 h) it was 0.0424 µM.

Take `Cc1cccc(Oc2ncn(CC3(O)CCN(C(=O)[C@@H]4CCC(F)(F)C[C@H]4c4ccccc4)CC3)c(=O)c2N)c1` [Example 19, 5-amino-3-({1-[(1R,2R)-4,4-difluoro-2-phenylcyclohexane-1-carbonyl]-4-hydroxypiperidin-4-yl}methyl)-6-(3-methylphenoxy)pyrimidin-4(3H)-one]: the IC50 stood at 83.1 nM in test [1] and 0.0716 µM in test [2] (Homo sapiens, Z-138, 96 h).

With `Nc1c(Oc2cccc(Br)c2)ncn(CC2(O)CCN(C(=O)[C@@H]3CCC(F)(F)C[C@H]3c3ccccc3)CC2)c1=O` [Example 20, 5-amino-6-(3-bromophenoxy)-3-([1-{(1R,2R)-4,4-difluoro-2-phenylcyclohexane-1-carbonyl]-4-hydroxypiperidin-4-yl}methyl)pyrimidin-4(3H)-one], the IC50 amounted to 105 nM in test [1] and 0.146 µM in test [2] (Homo sapiens, Z-138, 96 h).

For the compound `Nc1c(Oc2ccc(CO)cc2)ncn(CC2(O)CCN(C(=O)[C@@H]3CCC(F)(F)C[C@H]3c3ccccc3)CC2)c1=O` [Example 23, 5-amino-3-({1-[(1R,2R)-4,4-difluoro-2-phenylcyclohexane-1-carbonyl]-4-hydroxypiperidin-4-yl}methyl)-6-[4-(hydroymethyl)phenoxy]pyrimidin-4(3H)-one], the IC50 in test [1] was determined as 40 nM; in test [2] (Homo sapiens, Z-138, 96 h), 0.22 µM.
